Source: patent publication US10532113B2, “Polymeric systems and uses thereof in theranostic applications” (Ramot at Tel-Aviv University Ltd., priority 2014, dated 2020)

What was measured:
[1] = system: human MDA-MB-231 mammary adenocarcinoma cells; experiment: Cell viability assay, HPMA conjugate study, MDA-MB-231 cells; format: cell-based; conditions: 72 hours incubation (FIG. 10C), read-out: IC50, proliferation of MDA-MB-231 cells
Experimental: 4T1 cells (3,000 cells/well), HUVEC (10,000 cells/well) and MDA-MB-231 cells (10,000 cells/well) were plated onto 24-well culture plates in RPMI supplemented with 2% FBS, EBM-2 supplemented with 5% FBS or in DMEM supplemented with 10% FBS respectively, and incubated for 24 hours (37° C.; 5% CO2). The medium was then replaced with RPMI 1640 supplemented with 10% FBS, EGM-2 or DMEM supplemented with 10% FBS. Cells were exposed to PTX and PTX bound-conjugates at serial dilutions, at equivalent dose of the free PTX. […]

[2] = system: murine 4T1 adenocarcinoma cells; experiment: Cell viability assay, PGA-PTX-Cy5 study, 4T1 cells; format: cell-based; conditions: Mus musculus, 72 hours incubation, read-out: IC50, proliferation of 4T1 cells
Experimental: (§1) 4T1 cells (8,000 cells/wells), WM239A cells (15,000 cells/well) and MDA-MB-231 cells (10,000/well) were plated onto 24-well culture in RPMI supplemented with 10% FBS, or in DMEM supplemented with 10% FBS respectively, and incubated for 24 hours (37° C.; 5% CO2). The medium was then replaced with RPMI 1640 supplemented with 10% FBS or DMEM supplemented with 10% FBS.
(§2) Cells were exposed to PTX and PTX-bound conjugates at serial dilutions, at equivalent dose of free PTX. Number of viable cells was counted by a Z1 Coulter Counter® Cell and Particle Counter (Beckman Coulter®) following 72 hours of incubation.

HUVEC [3] = experiment: HUVEC migration scratch assay; format: cell-based, human; conditions: PTX-equivalent concentration 20 nM; 12 h
Experimental: The migration of HUVEC in the presence of PGA-PTX-Cy5 conjugate was evaluated using the scratch assay. The method is based on the observation that, upon creation of a new artificial gap, so called “scratch”, on a confluent cell monolayer, the cells on the edge of the newly created gap will move toward the opening to close the “scratch” until new cell-cell contacts are established again. […] At time zero (t=0) images were taken by phase-contrast microscope in a reference point. Following another 12 h of incubation, images of the reference point were taken again. The samples were analyzed quantitatively by ImageJ software.

[4] = system: human MDA-MB-231 mammary adenocarcinoma cells; experiment: Cell viability assay, PGA-PTX-Cy5 study, MDA-MB-231 cells; format: cell-based; conditions: 72 hours incubation, read-out: IC50, proliferation of MDA-MB-231 cells
Experimental: as §1, §2

[5] = system: human WM239A melanoma cells; experiment: Cell viability assay, PGA-PTX-Cy5 study, WM239A cells; format: cell-based; conditions: 72 hours incubation, read-out: IC50, proliferation of WM239A cells
Experimental: as §1, §2

[6] = system: murine 4T1 mammary adenocarcinoma cells; experiment: Cell viability assay, HPMA conjugate study, 4T1 cells; format: cell-based; conditions: Mus musculus, 96 hours incubation, read-out: IC50, proliferation of 4T1 cells
Experimental: (§3) 4T1 cells (3,000 cells/well), HUVEC (10,000 cells/well) and MDA-MB-231 cells (10,000 cells/well) were plated onto 24-well culture plates in RPMI supplemented with 2% FBS, EBM-2 supplemented with 5% FBS or in DMEM supplemented with 10% FBS respectively, and incubated for 24 hours (37° C.; 5% CO2). The medium was then replaced with RPMI 1640 supplemented with 10% FBS, EGM-2 or DMEM supplemented with 10% FBS. Cells were exposed to PTX and PTX bound-conjugates at serial dilutions, at equivalent dose of the free PTX. Number of viable cells was counted by a Z1 Coulter Counter® Cell and Particle Counter (Beckman Coulter®) following 96 hours of incubation.

HUVEC [7] = experiment: Cell viability assay, HPMA conjugate study, HUVEC proliferation; format: cell-based; conditions: Homo sapiens, 96 hours incubation
Experimental: as §3

IC50 [1]: ~0.5 nM
IC50 [2]: ~60 nM
IC50 [4]: ~2 nM
IC50 [5]: ~5 nM
IC50 [6]: ~35 nM
Structure (SMILES): CC(=O)O[C@H]1C(=O)[C@@]2(C)[C@H]([C@H](OC(=O)c3ccccc3)[C@]3(O)C[C@H](OC(=O)[C@H](O)[C@@H](NC(=O)c4ccccc4)c4ccccc4)C(C)=C1C3(C)C)[C@]1(OC(C)=O)CO[C@@H]1C[C@@H]2O [PTX, Paclitaxel]
HUVEC migration, gap closure (HUVEC [3]): 20%
IC50 (HUVEC [7]): ~2 nM
